According to patent publication US9765105B2, “Macrolide compound” (Pulike Biological Engineering, Inc., priority 2013, dated 2017):

Tests used:
Experiment in all cases: in vitro susceptibility, MIC by mini broth dilution
Format in all cases: cell-based
[1] = test system: Streptococcus equines CVCC556; conditions: strain CVCC556
Method in brief: (§1)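 Broth microdilution MIC, NCCLS method: 11-point two-fold DMSO compound series, duplicate rows, well 12 as control. Inoculum from 20 h, 35° C plate cultures, diluted 1:200 in broth.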

[2] = test system: Pasteurella multocida CVCC399; conditions: strain CVCC399
Method in brief: as §1

[3] = test system: Actinobacillus pleuropneumoniae CVCC262; conditions: strain CVCC262
Method in brief: as §1

Haemophilus parasuis = test system: Haemophilus parasuis
Method in brief: as §1

[4] = test system: Staphylococcus aureus CVCC26003; conditions: strain CVCC26003
Method in brief: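 S. aureus CVCC26003 was revived and subcultured twice, 20 h each at 35° C, on solid medium, then diluted 1:200 in CAMHB liquid medium. Compounds received an 11-step two-fold DMSO dilution in parallel duplicate rows. MIC was read by mini broth dilution per NCCLS guidance.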

Structure (SMILES)	MIC values, Streptococcus equines CVCC556 [1]	MIC values, Pasteurella multocida CVCC399 [2]	MIC values, Actinobacillus pleuropneumoniae CVCC262 [3]	MIC values, Haemophilus parasuis (Haemophilus parasuis)	MIC values, Staphylococcus aureus CVCC26003 [4]
CCCN1C[C@H](C)[C@@H](O)[C@](C)(O)[C@@H](CC)OC(=O)[C@H](C)[C@@H](O[C@H]2C[C@@](C)(OC)[C@](O)(CN3CCNCC3)[C@H](C)O2)[C@H](C)[C@@H](O[C@@H]2O[C@H](C)C[C@H](N(C)C)[C@H]2O)[C@](C)(O)C[C@H]1C [syzx-136]	0.25 ug/mi	0.5 ug/mi	0.5 ug/mi	0.25 ug/mi	0.25 ug/mi
CCCN1C[C@H](C)[C@@H](O)[C@](C)(O)[C@@H](CC)OC(=O)[C@H](C)[C@@H](O[C@H]2C[C@@](C)(OC)[C@](O)(CNC(=O)C(F)(F)F)[C@H](C)O2)[C@H](C)[C@@H](O[C@@H]2O[C@H](C)C[C@H](N(C)C)[C@H]2O)[C@](C)(O)C[C@H]1C [syzx-137]	1 ug/mi	2 ug/mi	0.5 ug/mi	0.5 ug/mi	0.5 ug/mi
CCCN1C[C@H](C)[C@@H](O)[C@](C)(O)[C@@H](CC)OC(=O)[C@H](C)[C@@H](O[C@H]2C[C@@](C)(OC)[C@](O)(CNc3ccnc(Cl)c3)[C@H](C)O2)[C@H](C)[C@@H](O[C@@H]2O[C@H](C)C[C@H](N(C)C)[C@H]2O)[C@](C)(O)C[C@H]1C [syzx-138]	0.5 ug/mi	8 ug/mi	2 ug/mi	2 ug/mi	2 ug/mi
C#CCNC[C@]1(O)[C@H](C)O[C@@H](O[C@H]2[C@H](C)[C@@H](O[C@@H]3O[C@H](C)C[C@H](N(C)C)[C@H]3O)[C@](C)(O)C[C@@H](C)N(CCC)C[C@H](C)[C@@H](O)[C@](C)(O)[C@@H](CC)OC(=O)[C@@H]2C)C[C@@]1(C)OC [syzx-140]	0.25 ug/mi	1 ug/mi	0.25 ug/mi	0.25 ug/mi	0.25 ug/mi
CCCN1C[C@H](C)[C@@H](O)[C@](C)(O)[C@@H](CC)OC(=O)[C@H](C)[C@@H](O[C@H]2C[C@@](C)(OC)[C@](O)(CNC(CC)C(=O)O)[C@H](C)O2)[C@H](C)[C@@H](O[C@@H]2O[C@H](C)C[C@H](N(C)C)[C@H]2O)[C@](C)(O)C[C@H]1C (stereo partly drawn) [syzx-141]	0.25 ug/mi	1 ug/mi	0.25 ug/mi	0.25 ug/mi	0.25 ug/mi
CCCN1C[C@H](C)[C@@H](O)[C@](C)(O)[C@@H](CC)OC(=O)[C@H](C)[C@@H](O[C@H]2C[C@@](C)(OC)[C@](O)(CNCCCC(=O)O)[C@H](C)O2)[C@H](C)[C@@H](O[C@@H]2O[C@H](C)C[C@H](N(C)C)[C@H]2O)[C@](C)(O)C[C@H]1C [syzx-142]	0.5 ug/mi	0.5 ug/mi	0.25 ug/mi	0.25 ug/mi	0.25 ug/mi
CCCN1C[C@H](C)[C@@H](O)[C@](C)(O)[C@@H](CC)OC(=O)[C@H](C)[C@@H](O[C@H]2C[C@@](C)(OC)[C@](O)(CNCCOCCO)[C@H](C)O2)[C@H](C)[C@@H](O[C@@H]2O[C@H](C)C[C@H](N(C)C)[C@H]2O)[C@](C)(O)C[C@H]1C [syzx-143]	0.25 ug/mi	1 ug/mi	0.25 ug/mi	0.25 ug/mi	0.25 ug/mi
CCCN1CC(C)C(O)C(C)(O)C(CC)OC(=O)C(C)C(OC2CC(C)(OC)C(O)(CNC(CO)CO)C(C)O2)C(C)C(OC2OC(C)CC(N(C)C)C2O)C(C)(O)CC1C (stereo not drawn) [syzx-145]	0.5 ug/mi	2 ug/mi	64 ug/mi	0.5 ug/mi	1 ug/mi
CCCN1C[C@H](C)[C@@H](O)[C@](C)(O)[C@@H](CC)OC(=O)[C@H](C)[C@@H](O[C@H]2C[C@@](C)(OC)[C@](O)(CNCCCO)[C@H](C)O2)[C@H](C)[C@@H](O[C@@H]2O[C@H](C)C[C@H](N(C)C)[C@H]2O)[C@](C)(O)C[C@H]1C [syzx-146]	0.25 ug/mi	0.5 ug/mi	0.25 ug/mi	0.25 ug/mi	0.25 ug/mi
CCCCCNC[C@]1(O)[C@H](C)O[C@@H](O[C@H]2[C@H](C)[C@@H](O[C@@H]3O[C@H](C)C[C@H](N(C)C)[C@H]3O)[C@](C)(O)C[C@@H](C)N(CCC)C[C@H](C)[C@@H](O)[C@](C)(O)[C@@H](CC)OC(=O)[C@@H]2C)C[C@@]1(C)OC [syzx-147]	0.25 ug/mi	0.5 ug/mi	0.25 ug/mi	0.25 ug/mi	0.25 ug/mi
CCCN1C[C@H](C)[C@@H](O)[C@](C)(O)[C@@H](CC)OC(=O)[C@H](C)[C@@H](O[C@H]2C[C@@](C)(OC)[C@](O)(CNN3CCOCC3)[C@H](C)O2)[C@H](C)[C@@H](O[C@@H]2O[C@H](C)C[C@H](N(C)C)[C@H]2O)[C@](C)(O)C[C@H]1C [syzx-148]	0.25 ug/mi	1 ug/mi	0.5 ug/mi	0.5 ug/mi	0.25 ug/mi
CCCN1C[C@H](C)[C@@H](O)[C@](C)(O)[C@@H](CC)OC(=O)[C@H](C)[C@@H](O[C@H]2C[C@@](C)(OC)[C@](O)(CNC(C)CC(=O)O)[C@H](C)O2)[C@H](C)[C@@H](O[C@@H]2O[C@H](C)C[C@H](N(C)C)[C@H]2O)[C@](C)(O)C[C@H]1C (stereo partly drawn) [syzx-150]	0.25 ug/mi	2 ug/mi	1 ug/mi	0.5 ug/mi	0.5 ug/mi
CCCN1C[C@H](C)[C@@H](O)[C@](C)(O)[C@@H](CC)OC(=O)[C@H](C)[C@@H](O[C@H]2C[C@@](C)(OC)[C@](O)(CNC(CC)CO)[C@H](C)O2)[C@H](C)[C@@H](O[C@@H]2O[C@H](C)C[C@H](N(C)C)[C@H]2O)[C@](C)(O)C[C@H]1C (stereo partly drawn) [syzx-151]	0.25 ug/mi	0.5 ug/mi	0.25 ug/mi	0.25 ug/mi	0.25 ug/mi
CCCN1CC(C)C(O)C(C)(O)C(CC)OC(=O)C(C)C(OC2CC(C)(OC)C(O)(CNCCOS(=O)(=O)O)C(C)O2)C(C)C(OC2OC(C)CC(N(C)C)C2O)C(C)(O)CC1C (stereo not drawn) [syzx-153]	0.25 ug/mi	1 ug/mi	0.25 ug/mi	0.25 ug/mi	0.25 ug/mi
CCCN1C[C@H](C)[C@@H](O)[C@](C)(O)[C@@H](CC)OC(=O)[C@H](C)[C@@H](O[C@H]2C[C@@](C)(OC)[C@](O)(CNCc3ccc(F)c(F)c3)[C@H](C)O2)[C@H](C)[C@@H](O[C@@H]2O[C@H](C)C[C@H](N(C)C)[C@H]2O)[C@](C)(O)C[C@H]1C [syzx-154]	0.5 ug/mi	0.5 ug/mi	0.25 ug/mi	0.25 ug/mi	0.25 ug/mi
CCCN1C[C@H](C)[C@@H](O)[C@](C)(O)[C@@H](CC)OC(=O)[C@H](C)[C@@H](O[C@H]2C[C@@](C)(OC)[C@](O)(CNCc3cc(F)cc(F)c3)[C@H](C)O2)[C@H](C)[C@@H](O[C@@H]2O[C@H](C)C[C@H](N(C)C)[C@H]2O)[C@](C)(O)C[C@H]1C [syzx-155]	0.25 ug/mi	0.5 ug/mi	0.25 ug/mi	0.25 ug/mi	0.25 ug/mi
CCCN1C[C@H](C)[C@@H](O)[C@](C)(O)[C@@H](CC)OC(=O)[C@H](C)[C@@H](O[C@H]2C[C@@](C)(OC)[C@](O)(CNCCOC)[C@H](C)O2)[C@H](C)[C@@H](O[C@@H]2O[C@H](C)C[C@H](N(C)C)[C@H]2O)[C@](C)(O)C[C@H]1C [syzx-158]	0.25 ug/mi	2 ug/mi	4 ug/mi	4 ug/mi	2 ug/mi
CCCN1C[C@H](C)[C@@H](O)[C@](C)(O)[C@@H](CC)OC(=O)[C@H](C)[C@@H](O[C@H]2C[C@@](C)(OC)[C@](O)(CNC(C)CCCN(CC)CC)[C@H](C)O2)[C@H](C)[C@@H](O[C@@H]2O[C@H](C)C[C@H](N(C)C)[C@H]2O)[C@](C)(O)C[C@H]1C (stereo partly drawn) [syzx-159]	0.25 ug/mi	0.5 ug/mi	0.25 ug/mi	0.25 ug/mi	0.5 ug/mi
